Laboratory results published in patent US20030162300A1, “Galactomannan-oligosaccharides and methods for the production and use thereof” (priority 1999, published 2003).

Columns and labels:
[1] = Stability in the stomach: hydrolysis rate at pH 1.0 and 2.0; type: physicochemical; settings: 37° C.
Protocol: For this purpose, 1% galactomanno-oligosaccharide solutions were incubated for 3 h at a pH value of 1.0 (0.1 M HCl) and a pH value of 2.0 (0.01 M HCl) and a temperature of 37° C. After 60, 120, and 180 min, samples were taken from the reaction batch and analyzed by means of HPAEC. The control substances used were saccharose and 1-kestose.

[2] = tested on: Reh(pre-B) on the colon cell line HT 29; experiment: Adhesion assay: Reh (pre-B) on the colon cell line HT 29; type: cell-based; settings: 10 μg/batch; for Mittelwert (%) (mean value), specific adhesion: percentage of the 100% value; for Index: relative to without carbohydrate = 1.00
Protocol: In the adhesion assay, the influence of galactomanno-oligosaccharides according to the present invention on the adhesion of B cell lines (for example, Reh) and normal human B lymphocytes to epithelial cells (colon tumor line HT 29) was measured. In the overlay assay used, the lymphocytes were intracellularly marked with calcein so as to make it possible to carry out the measurement by means of fluorometry.
First, coating with the adherent colon epithelial cell one (HT 29) in microtiter plates (24-hole Costar® plates) took place, with incubation (37° C., overnight) until a confluent bed has formed. This is done as much as possible in a serum-free medium Inoculum: 1×10^4 cells. Before the subsequent assay was carried out, the adherent cells were washed three times with PBS(phosphate-buffered physiological saline solution) and blocked for 1 h at room temperature with PBS+1% bovine serum albumin (BSA).
The untreated B cell lines or isolated B lymphocytes to be tested were marked with fluorescent calcein (1×10^7 cells in 2 mL of RPMI medium+HEPES+10 μL of calcein AM, 30 min, 37° C.; subsequently washed 2× with HBSS (Hanks buffer)+0.25% BSA) and 1×10^6 cells in 0.5 mL of PBS+0.25% […] per hole were incubated for 1 h. The culture plate was placed on a shaker for 10 sec, 0.5 mL of 0.2% glutaraldehyde in PBS+0.2% BSA per hole were added and incubated for 10 min on the shaker. The fluorescence of the plate was measured in a fluorescence measuring device ([…]).
The first measurement corresponds to the 100% value. Subsequently, the plate was washed four times and again measured. This measurement corresponds to the specific adhesion which is expressed as a percentage of the 100% value minus the autofluorescence value (unmarked cells). The control substances used were galactose and glucose.

[3] = tested on: fresh tooth plaque (mixed culture); experiment: Stability in the mouth: incubation with fresh tooth plaque; type: in vitro ADME, male volunteers; settings: 10 mg plaque in 1 mL 1% solution, pH 7.5, 37° C., 2 h (120 min)
Protocol: Plaque samples were obtained from three male volunteers who had not brushed their teeth for three days, and in each case, 10 mg of the plaque were suspended in 1 mL of oligosaccharide solution (1% in 20 mM carbonate buffer, pH 7.5). In the course of the two-hour-long incubation time at 37° C., samples were taken and tested for their oligosaccharide content.

[4] = tested on: Streptococcus mutans DSM 20523; experiment: Stability in the mouth: incubation with Streptococcus mutans; type: in vitro ADME; settings: 1% in 20 mM carbonate buffer pH 7.5, 37° C., 2 h (120 min)
Protocol: (§1) Streptococcus mutans and Streptococcus sobrinus were cultivated for 24 h in liquid DSM medium 92 under anaerobic conditions at 37° C. At the end of the logarithmic growth phase, the cells were centrifuged off (15 min, 4000×g) and resuspended in 10% of the original 20 mM carbonate buffer, pH 7.5. Subsequently, 9 mL of a solution of the oligosaccharides according to the present invention (1% in 20 mM carbonate buffer, pH 7.5) were inoculated with 1 mL of the bacterial suspension and incubated for 2 h at 37° C.

[5] = target: T1, saccharase/isomaltase (SI complex) (Sus scrofa, UniProt P56729); experiment: Cleavability by alpha-glucosidases of the small intestine, SI complex; type: in vitro ADME, pigs; settings: SI enzyme complex 0.7 U, 1% in TRA buffer pH 7.0, 2 h, 37° C.
T1 construct: were isolated from the thin intestine of pigs using the method described by H. Heymann; from tissue; host or cells: pig small intestine (mucous membrane)
T1 sequence (P56729 with tags, fused parts or gaps): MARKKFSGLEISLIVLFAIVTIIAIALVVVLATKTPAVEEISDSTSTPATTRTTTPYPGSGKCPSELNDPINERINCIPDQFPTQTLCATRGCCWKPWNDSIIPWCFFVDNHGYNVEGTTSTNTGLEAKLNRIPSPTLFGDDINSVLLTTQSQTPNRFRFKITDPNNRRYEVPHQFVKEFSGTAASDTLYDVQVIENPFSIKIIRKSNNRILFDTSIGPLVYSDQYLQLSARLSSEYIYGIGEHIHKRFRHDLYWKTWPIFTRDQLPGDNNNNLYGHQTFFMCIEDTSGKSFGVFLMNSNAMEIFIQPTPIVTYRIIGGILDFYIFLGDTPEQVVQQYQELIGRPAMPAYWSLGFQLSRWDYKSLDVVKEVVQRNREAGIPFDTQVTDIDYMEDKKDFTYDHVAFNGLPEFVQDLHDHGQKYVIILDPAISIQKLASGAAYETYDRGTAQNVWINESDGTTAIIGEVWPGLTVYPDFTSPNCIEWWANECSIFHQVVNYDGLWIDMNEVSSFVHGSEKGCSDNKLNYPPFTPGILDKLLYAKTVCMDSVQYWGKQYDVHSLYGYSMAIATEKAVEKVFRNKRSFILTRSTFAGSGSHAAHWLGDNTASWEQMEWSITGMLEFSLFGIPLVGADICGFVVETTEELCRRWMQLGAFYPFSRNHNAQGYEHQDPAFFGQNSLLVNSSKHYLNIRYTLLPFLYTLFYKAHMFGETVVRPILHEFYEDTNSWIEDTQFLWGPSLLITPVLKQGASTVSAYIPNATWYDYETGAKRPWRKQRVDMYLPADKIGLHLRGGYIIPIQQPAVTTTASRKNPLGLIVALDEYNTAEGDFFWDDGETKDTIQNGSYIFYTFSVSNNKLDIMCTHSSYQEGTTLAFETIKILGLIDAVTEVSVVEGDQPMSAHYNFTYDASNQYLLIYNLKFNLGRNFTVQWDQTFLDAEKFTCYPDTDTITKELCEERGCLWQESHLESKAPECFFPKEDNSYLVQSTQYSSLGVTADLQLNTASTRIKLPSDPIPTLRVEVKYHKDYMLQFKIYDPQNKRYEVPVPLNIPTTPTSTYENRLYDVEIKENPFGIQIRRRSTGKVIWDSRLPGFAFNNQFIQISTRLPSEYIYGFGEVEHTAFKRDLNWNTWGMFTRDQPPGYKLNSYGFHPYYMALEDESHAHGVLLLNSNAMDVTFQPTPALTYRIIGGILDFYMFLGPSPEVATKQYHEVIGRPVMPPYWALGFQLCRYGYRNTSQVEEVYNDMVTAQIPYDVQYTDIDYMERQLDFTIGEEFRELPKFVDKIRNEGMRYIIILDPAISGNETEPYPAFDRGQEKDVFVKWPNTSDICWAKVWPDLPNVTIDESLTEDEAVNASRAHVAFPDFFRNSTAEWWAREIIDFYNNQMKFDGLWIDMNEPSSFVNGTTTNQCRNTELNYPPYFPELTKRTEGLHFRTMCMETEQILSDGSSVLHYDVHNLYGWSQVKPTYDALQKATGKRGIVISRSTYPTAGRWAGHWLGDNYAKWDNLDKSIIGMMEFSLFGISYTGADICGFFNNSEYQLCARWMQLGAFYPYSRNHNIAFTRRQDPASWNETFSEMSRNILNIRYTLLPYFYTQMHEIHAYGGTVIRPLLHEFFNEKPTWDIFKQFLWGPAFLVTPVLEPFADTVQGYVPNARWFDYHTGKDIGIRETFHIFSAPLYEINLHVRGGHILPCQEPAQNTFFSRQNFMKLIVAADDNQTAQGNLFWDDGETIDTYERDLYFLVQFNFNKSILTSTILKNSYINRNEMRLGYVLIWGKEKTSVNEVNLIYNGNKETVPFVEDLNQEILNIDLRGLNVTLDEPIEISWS
Source text: In vivo, the enzyme complexes saccharase/isomaltase and glucoamylase/maltase which are present in the mucous membranes of the small intestine ensure that after their passage into the small intestine, the disaccharides maltose and saccharose and in part also the malto-oligosaccharides are cleaved to form monosaccharides and as such are able to reach the circulatory system via the intestinal wall.
The stability of the galactomanno-oligosaccharides according to the present invention against these enzymes was tested as follows:
The enzyme complexes saccharase/isomaltase (SI complex) and glucoamylase/maltase (GM complex) were isolated from the thin intestine of pigs using the method described by H. Heymann (dissertation, Hannover, 1991).
The cleavability of the galactomanno-oligosaccharides according to the present invention by means of a-glucosidases present in the small intestine was determined as follows:
Triethanolamine (TRA) buffer, 0.1 M, pH 7.0
Galactomanno-oligosaccharides, 1% solution in TRA buffer
Maltose and saccharose as control substances, 1% in TRA buffer […]
At t=0, 0.7 U of the enzyme complex saccharase/isomaltase or glucoamylase/maltase were added to 1.2 mL of the carbohydrate solution which had been heated to a temperature of 37° C., mixed, and incubated at 37° C. […] The monosaccharides formed as well as the test substances used were quantitatively determined by means of HPAEC.

[6] = tested on: Streptococcus sobrinus NCTC 10922; experiment: Stability in the mouth: incubation with Streptococcus sobrinus; type: in vitro ADME; settings: 1% in 20 mM carbonate buffer pH 7.5, 37° C., 2 h (120 min)
Protocol: as §1

[7] = tested on: resected colon pieces (distal segment); experiment: Mucus secretion of resected colon pieces; type: cell-based; settings: pig colon pieces, 5 h, 37°, Hanks buffer; galactomanno-oligosaccharides 1%
Protocol: After thoroughly cleaning the resected colon of a freshly slaughtered pig, pieces measuring 1 cm^2 were cut from the distal segment of said colon. The pieces thus prepared were incubated, while stirring and fumigating with oxygen, for 5 h at a temperature of 37° in Hanks buffer to which chloramphenicol and ampicillin (50 μg/mL each) had been added. The buffer additionally contained 1% of the galactomanno-oligosaccharides produced according to the present invention and to be tested for their stimulating effect on the mucus secretion. As a control, 10 colon segments were used in each batch to be tested. One of the batches contained hydrocortisone which is normally used in the treatment of inflammatory intestinal diseases.
As a measure for an increase in the mucus secretion, the increase in the total carbohydrate content in the supernatant portion was measured. For this purpose, during the incubation, samples were collected at various times, and 20 μL of resorcin solution (6 mg/mL) and 100 μL of 75% sulfuric acid were added to 10 μL of each sample, and after an incubation time of 60 min at 80° C., the extinction was measured at λ=450 nm.

[8] = tested on: Staphylococcus aureus, 2 strains; experiment: Adhesion of pathogenic microorganisms to human uroepithelial cells, Staphylococcus aureus; type: cell-based; settings: human uroepithelial cells preincubated with the carbohydrate
Protocol: (§2) Human uroepithelial cells obtained by means of centrifugation from first morning urine
(§3) Staphylococcus aureus, 2 strains, and E. coli, 2 strains, each as suspension with 10^9 microorganisms/mL
(§4) The epithelial cells and the suspension of microorganisms were combined and incubated for 30 min at 37° C. Subsequently, the epithelial cells were separated from the nonadherent microorganisms by means of membrane filtration (8 μ). The filters were repeatedly washed and placed into physiological saline solution, and the epithelial cells were suspended in said solution. After centrifuging the suspension in saline solution, the pellet was placed on a microscopic slide and stained according to May-Grünwald and Giemsa. The number of the microorganisms adhering to 50 epithelial cells as counted. The number represented the blank reading. Epithelial cells without the addition of a suspension of microorganisms served as the control.
(§5) In the main test, epithelial cells were first incubated for 1, 2, and 3 h with galactomanno-oligosaccharide solutions of different concentrations. They were subsequently combined with the suspension of microorganisms and treated as described above. The number of microorganisms adhering to 50 epithelial cells represented the measured value.

[9] = tested on: E. coli, 2 strains; experiment: Adhesion of pathogenic microorganisms to human uroepithelial cells, E. coli; type: cell-based; settings: human uroepithelial cells preincubated with the carbohydrate
Protocol: as §2, §3, §4, §5

[10] = tested on: monocytes; experiment: Phagocytosis assay, monocytes; type: cell-based; settings: E. coli nonopsonized, 100 μg/batch, whole blood
Protocol: (§6) The influence of the galactomanno-oligosaccharides according to the present invention on the function of the phagocytes (mono-, granulocytes) can be determined by means of phagocytosis assays. During the phagocytosis stimulation, the phagocytes were first incubated with galactomanno-oligosaccharides (100 μg of glycan/0. 11 mL of whole blood, 37° C., 10 min). A corresponding blank was incubated for 10 min in an ice bath. Subsequently, the actual phagocytosis test was carried out under the following conditions:
(§7) 0.11 mL of the preliminary incubation solution was allowed to stand for 10 min in the ice bath; subsequently, 0.01 mL of nonopsonized E. coli (fluorescein isothiocyanate (FITC) marked, 10^9 per mL, ORPEGEN) or 0.01 mL of nonopsonized Staphylococcus aureus (15×10^6 per mL, FITC marked, MOLECULAR PROBES) were added. The batches were incubated (double determinations) for 10 min at 37° C. The batches were washed twice with 3 mL of washing buffer (ORPEGEN) each and centrifuged at 250×g for 5 min at 4° C. […]
(§8) The measurement was carried out in the flow cytometer (excitation: 488 nm, emission FL-1: 520 nm); monocytes and granulocytes can be distinguished from each other without separation (forward light scatter (FSC) versus ([…]) (sideways light scatter). The results are expressed as a percentage of the phagocytosis-positive cells (see Table VI below). […]

[11] = tested on: granulocytes; experiment: Phagocytosis assay, granulocytes; type: cell-based; settings: 100 μg/batch, whole blood
Protocol: as §6, §7, §8

OC[C@H]1O[C@@](CO)(OC[C@@]2(O[C@H]3O[C@H](CO)[C@@H](O)[C@H](O)[C@H]3O)O[C@H](CO)[C@@H](O)[C@@H]2O)[C@@H](O)[C@@H]1O [1-Kestose, 1-kestose]
Hydrolysis rate in % ([1]; pH 1 (0.1 M HCl), 60 min): 90% | Hydrolysis rate in % ([1]; pH 1 (0.1 M HCl), 120 min): 100% | Hydrolysis rate in % ([1]; pH 1 (0.1 M HCl), 180 min): 100% | Hydrolysis rate in % ([1]; pH 2 (0.01 M HCl), 60 min): 16% | Hydrolysis rate in % ([1]; pH 2 (0.01 M HCl), 120 min): 30% | Hydrolysis rate in % ([1]; pH 2 (0.01 M HCl), 180 min): 43%

O=C[C@H](O)[C@@H](O)[C@@H](O)[C@H](O)CO [D-Galactose]
Mittelwert (%) (mean value), specific adhesion [2]: 51% | Index [2]: 1.12

O=C[C@H](O)[C@@H](O)[C@H](O)[C@H](O)CO [D-Glucose]
Mittelwert (%) (mean value), specific adhesion [2]: 47% | Index [2]: 1.11

OC[C@H]1O[C@@](CO)(O[C@H]2O[C@H](CO)[C@@H](O)[C@H](O)[C@H]2O)[C@@H](O)[C@@H]1O [Saccharose, saccharose]
cleavage/hydrolysis of the carbohydrate [3]: completely hydrolyzed | cleavage/hydrolysis of the carbohydrate [4]: completely hydrolyzed | Hydrolyserate (%) (Hydrolysis rate) [5]: 98% | Hydrolysis rate in % ([1]; pH 1 (0.1 M HCl), 60 min): 24% | Hydrolysis rate in % ([1]; pH 1 (0.1 M HCl), 120 min): 55% | Hydrolysis rate in % ([1]; pH 1 (0.1 M HCl), 180 min): 61% | Hydrolysis rate in % ([1]; pH 2 (0.01 M HCl), 60 min): 1% | Hydrolysis rate in % ([1]; pH 2 (0.01 M HCl), 120 min): 2% | Hydrolysis rate in % ([1]; pH 2 (0.01 M HCl), 180 min): 7% | cleavage/hydrolysis of the carbohydrate [6]: completely hydrolyzed

C[C@]12CCC(=O)C=C1CC[C@@H]1[C@@H]2[C@@H](O)C[C@@]2(C)[C@H]1CC[C@]2(O)C(=O)CO [hydrocortisone]
increase in the mucus secretion compared to the control (total carbohydrate in supernatant) [7]: approximately 5.3 -fold

OC[C@H]1O[C@H](O[C@]2(CO)O[C@H](CO[C@H]3O[C@H](CO)[C@@H](O)[C@H](O)[C@H]3O)[C@@H](O)[C@@H]2O)[C@H](O)[C@@H](O)[C@@H]1O [isomelzitose]
number of microorganisms adhering to the epithelial cells [8]: not reduced | number of microorganisms adhering to the epithelial cells [9]: not reduced

OC[C@H]1O[C@@](CO)(OC[C@@]2(OC[C@@]3(O[C@H]4O[C@H](CO)[C@@H](O)[C@H](O)[C@H]4O)O[C@H](CO)[C@@H](O)[C@@H]3O)O[C@H](CO)[C@@H](O)[C@@H]2O)[C@@H](O)[C@@H]1O [nystose]
number of microorganisms adhering to the epithelial cells [8]: not reduced | number of microorganisms adhering to the epithelial cells [9]: not reduced

OC[C@H]1O[C@H](OC[C@H]2O[C@H](O[C@]3(CO)O[C@H](CO)[C@@H](O)[C@@H]3O)[C@H](O)[C@@H](O)[C@@H]2O)[C@H](O)[C@@H](O)[C@H]1O [raffinose]
Monocyten (% positive Zellen), phagocytosis-positive cells [10]: 22.0% | Granulocyten (% positive Zellen), phagocytosis-positive cells ([11]; E. coli nonopsonized): 17.0% | Granulocyten (% positive Zellen), phagocytosis-positive cells ([11]; Staph. aureus nonopsonized): 30.0% | number of microorganisms adhering to the epithelial cells [8]: not reduced | number of microorganisms adhering to the epithelial cells [9]: not reduced
